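Tested at 5 concentrations; 48 h exposure; 96-well plates; endpoints linearly interpolated, else capped at highest concentration. TGI denotes the concentration required for complete inhibition of growth.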
Assays:
Test in all cases: inhibition of tumour cell growth, NCI panel, 48 h
[1] = tested on: 786-0 renal
[2] = tested on: A498 renal
[3] = tested on: A549 NSCLC
[4] = tested on: BT-549 breast
[5] = tested on: CAKI-1 renal
[6] = tested on: CCRF-CEM leukemia
[7] = tested on: COLO 205 colon
[8] = tested on: DU-145 prostate
[9] = tested on: EKVX NSCLC
[10] = tested on: HCT-116 colon
[11] = tested on: HL-60(TB) leukemia
[12] = tested on: HOP-62 NSCLC
[13] = tested on: HS 578T breast
[14] = tested on: HT29 colon
[15] = tested on: IGROV1 ovarian
[16] = tested on: KM12 colon
[17] = tested on: LOX IMVI melanoma
[18] = tested on: M14 melanoma
[19] = tested on: MALME-3M melanoma
[20] = tested on: MCF7 breast
[21] = tested on: MDA-MB-231 breast
[22] = tested on: MDA-MB-435
[23] = tested on: MDA-N
[24] = tested on: MOLT-4 leukemia
[25] = tested on: NCI-H226 lung
[26] = tested on: NCI-H23 lung
[27] = tested on: NCI-H522 lung
[28] = tested on: NCI/ADR-RES ovarian
[29] = tested on: OVCAR-3 ovarian
[30] = tested on: OVCAR-5 ovarian
[31] = tested on: OVCAR-8 ovarian
[32] = tested on: PC-3 prostate
[33] = tested on: RXF 393 renal
[34] = tested on: SF-268 CNS
[35] = tested on: SF-539 CNS
[36] = tested on: SK-MEL-2 melanoma
[37] = tested on: SK-MEL-28 melanoma
[38] = tested on: SK-MEL-5 melanoma
[39] = tested on: SK-OV-3 ovarian
[40] = tested on: SN12C renal
[41] = tested on: SNB-75 CNS
[42] = tested on: SW-620 colon
[43] = tested on: T-47D breast
[44] = tested on: TK-10 renal
[45] = tested on: U251 CNS
[46] = tested on: UACC-257 melanoma
[47] = tested on: UACC-62 melanoma
[48] = tested on: UO-31 renal
[49] = tested on: ACHN renal
[50] = tested on: HCC-2998 colon
[51] = tested on: HCT-15 colon
[52] = tested on: HOP-92 NSCLC
[53] = tested on: K-562 leukemia
[54] = tested on: NCI-H460 lung
[55] = tested on: OVCAR-4 ovarian
[56] = tested on: RPMI-8226 leukemia
[57] = tested on: SF-295 CNS
[58] = tested on: SNB-19 CNS
[59] = tested on: SR leukemia

SMILES: COc1cc([N+](=O)[O-])c(OC)c2c(Nc3ccc(S(=O)(=O)O)c4cc(S(=O)(=O)O)cc(S(=O)(=O)O)c34)cc(C)nc12
- TGI [1]: > 100 µM
- TGI [2]: > 100 µM
- TGI [3]: > 100 µM
- TGI [4]: > 100 µM
- TGI [5]: > 100 µM
- TGI [6]: > 100 µM
- TGI [7]: > 100 µM
- TGI [8]: > 100 µM
- TGI [9]: > 100 µM
- TGI [10]: > 100 µM
- TGI [11]: > 100 µM
- TGI [12]: > 100 µM
- TGI [13]: > 100 µM
- TGI [14]: > 100 µM
- TGI [15]: > 100 µM
- TGI [16]: > 100 µM
- TGI [17]: > 100 µM
- TGI [18]: > 100 µM
- TGI [19]: > 100 µM
- TGI [20]: > 100 µM
- TGI [21]: > 100 µM
- TGI [22]: > 100 µM
- TGI [23]: > 100 µM
- TGI [24]: > 100 µM
- TGI [25]: > 100 µM
- TGI [26]: > 100 µM
- TGI [27]: > 100 µM
- TGI [28]: > 100 µM
- TGI [29]: > 100 µM
- TGI [30]: > 100 µM
- TGI [31]: > 100 µM
- TGI [32]: > 100 µM
- TGI [33]: > 100 µM
- TGI [34]: > 100 µM
- TGI [35]: > 100 µM
- TGI [36]: > 100 µM
- TGI [37]: > 100 µM
- TGI [38]: > 100 µM
- TGI [39]: > 100 µM
- TGI [40]: > 100 µM
- TGI [41]: > 100 µM
- TGI [42]: > 100 µM
- TGI [43]: > 100 µM
- TGI [44]: > 100 µM
- TGI [45]: > 100 µM
- TGI [46]: > 100 µM
- TGI [47]: > 100 µM
- TGI [48]: > 100 µM

SMILES: O=c1c2ccccc2sc2ccccc12
- TGI [1]: > 100 µM
- TGI [2]: > 100 µM
- TGI [3]: > 100 µM
- TGI [49]: > 100 µM
- TGI [4]: > 100 µM
- TGI [5]: > 100 µM
- TGI [6]: > 100 µM
- TGI [7]: > 100 µM
- TGI [8]: > 100 µM
- TGI [9]: > 100 µM
- TGI [50]: > 100 µM
- TGI [10]: > 100 µM
- TGI [51]: > 100 µM
- TGI [11]: > 100 µM
- TGI [12]: > 100 µM
- TGI [52]: > 100 µM
- TGI [13]: > 100 µM
- TGI [14]: > 100 µM
- TGI [15]: > 100 µM
- TGI [53]: > 100 µM
- TGI [16]: > 100 µM
- TGI [17]: > 100 µM
- TGI [18]: > 100 µM
- TGI [19]: > 100 µM
- TGI [20]: > 100 µM
- TGI [21]: > 100 µM
- TGI [22]: > 100 µM
- TGI [23]: > 100 µM
- TGI [24]: > 100 µM
- TGI [25]: > 100 µM
- TGI [26]: > 100 µM
- TGI [54]: > 100 µM
- TGI [27]: > 100 µM
- TGI [28]: > 100 µM
- TGI [29]: > 100 µM
- TGI [55]: > 100 µM
- TGI [30]: > 100 µM
- TGI [31]: > 100 µM
- TGI [32]: > 100 µM
- TGI [56]: > 100 µM
- TGI [33]: > 100 µM
- TGI [34]: > 100 µM
- TGI [57]: > 100 µM
- TGI [35]: > 100 µM
- TGI [36]: > 100 µM
- TGI [37]: > 100 µM
- TGI [38]: > 100 µM
- TGI [39]: > 100 µM
- TGI [40]: > 100 µM
- TGI [58]: > 100 µM
- TGI [41]: > 100 µM
- TGI [42]: > 100 µM
- TGI [43]: > 100 µM
- TGI [44]: > 100 µM
- TGI [45]: > 100 µM
- TGI [46]: > 100 µM
- TGI [47]: > 100 µM
- TGI [48]: > 100 µM

SMILES: C[C@]12CC[C@@H]3c4ccc(O)cc4CC[C@H]3[C@@H]1C/C(=C\c1ccc(C#N)cc1)C2=O
- TGI [1]: > 100 µM
- TGI [2]: > 100 µM
- TGI [3]: > 100 µM
- TGI [49]: > 100 µM
- TGI [4]: > 100 µM
- TGI [5]: > 100 µM
- TGI [6]: > 100 µM
- TGI [7]: > 100 µM
- TGI [8]: > 100 µM
- TGI [9]: > 100 µM
- TGI [50]: > 100 µM
- TGI [10]: > 100 µM
- TGI [51]: > 100 µM
- TGI [12]: > 100 µM
- TGI [52]: 89.1 µM
- TGI [14]: 75.2 µM
- TGI [15]: > 100 µM
- TGI [53]: > 100 µM
- TGI [16]: > 100 µM
- TGI [17]: > 100 µM
- TGI [18]: > 100 µM
- TGI [19]: > 100 µM
- TGI [20]: > 100 µM
- TGI [21]: > 100 µM
- TGI [22]: 76.8 µM
- TGI [23]: > 100 µM
- TGI [24]: > 100 µM
- TGI [25]: > 100 µM
- TGI [26]: > 100 µM
- TGI [54]: > 100 µM
- TGI [27]: 41.6 µM
- TGI [28]: > 100 µM
- TGI [29]: > 100 µM
- TGI [55]: > 100 µM
- TGI [30]: > 100 µM
- TGI [31]: > 100 µM
- TGI [32]: > 100 µM
- TGI [56]: > 100 µM
- TGI [33]: 52.6 µM
- TGI [34]: > 100 µM
- TGI [57]: > 100 µM
- TGI [35]: > 100 µM
- TGI [36]: > 100 µM
- TGI [37]: > 100 µM
- TGI [38]: > 100 µM
- TGI [39]: > 100 µM
- TGI [40]: > 100 µM
- TGI [58]: > 100 µM
- TGI [41]: > 100 µM
- TGI [59]: > 100 µM
- TGI [42]: > 100 µM
- TGI [43]: > 100 µM
- TGI [44]: > 100 µM
- TGI [45]: > 100 µM
- TGI [46]: > 100 µM
- TGI [47]: > 100 µM
- TGI [48]: > 100 µM

SMILES: COP(=O)(OC)C(Nc1ccc(Cc2ccc(NC(c3ccco3)P(=O)(OC)OC)cc2)cc1)c1ccco1 (centres undefined)
- TGI [1]: > 100 µM
- TGI [2]: 56 µM
- TGI [3]: > 100 µM
- TGI [49]: 89.9 µM
- TGI [4]: 60 µM
- TGI [5]: 86.3 µM
- TGI [6]: > 100 µM
- TGI [7]: > 100 µM
- TGI [8]: > 100 µM
- TGI [9]: 94.4 µM
- TGI [10]: > 100 µM
- TGI [51]: > 100 µM
- TGI [11]: > 100 µM
- TGI [12]: 20.4 µM
- TGI [52]: 35.1 µM
- TGI [13]: > 100 µM
- TGI [14]: > 100 µM
- TGI [15]: > 100 µM
- TGI [53]: > 100 µM
- TGI [16]: > 100 µM
- TGI [17]: > 100 µM
- TGI [18]: > 100 µM
- TGI [19]: > 100 µM
- TGI [20]: > 100 µM
- TGI [21]: 41.4 µM
- TGI [22]: > 100 µM
- TGI [23]: > 100 µM
- TGI [24]: > 100 µM
- TGI [25]: > 100 µM
- TGI [26]: 44.5 µM
- TGI [54]: > 100 µM
- TGI [27]: > 100 µM
- TGI [28]: > 100 µM
- TGI [29]: > 100 µM
- TGI [55]: > 100 µM
- TGI [30]: > 100 µM
- TGI [31]: > 100 µM
- TGI [32]: > 100 µM
- TGI [33]: 19.9 µM
- TGI [34]: > 100 µM
- TGI [57]: 82.2 µM
- TGI [35]: 16.2 µM
- TGI [36]: 35.7 µM
- TGI [37]: > 100 µM
- TGI [38]: > 100 µM
- TGI [39]: 73.6 µM
- TGI [40]: > 100 µM
- TGI [58]: 71.3 µM
- TGI [41]: 10.2 µM
- TGI [42]: > 100 µM
- TGI [43]: > 100 µM
- TGI [44]: 29.3 µM
- TGI [45]: 21.4 µM
- TGI [46]: > 100 µM
- TGI [47]: 50.5 µM
- TGI [48]: > 100 µM

— PubChem BioAssay (NCI)
